The kinase profiling compilation of Christmann-Franck et al. (2016)
Values joined by “and” are separate entries in the source; they are usually repeats but may differ in a detail not shown here. Equal values may be shown once.

What was measured:
Assay in all cases: radiometric filter-binding kinase assay, Kinase HotSpot
Conditions in all cases: compound 0.5 µM; ATP 10 µM
[1] = biological target: PRKD3 (human) (UniProt O94806)
[2] = biological target: CHEK1 (human) (UniProt O14757)
[3] = biological target: PDPK1 (human) (UniProt O15530)
[4] = biological target: PAK6 (human) (UniProt Q9NQU5)
[5] = biological target: EGFR (human) (UniProt P00533)
[6] = biological target: TGFBR2 (human) (UniProt P37173)
[7] = biological target: KDR (human) (UniProt P35968)
Sequence of KDR (human) (P35968 whole entry, looked up): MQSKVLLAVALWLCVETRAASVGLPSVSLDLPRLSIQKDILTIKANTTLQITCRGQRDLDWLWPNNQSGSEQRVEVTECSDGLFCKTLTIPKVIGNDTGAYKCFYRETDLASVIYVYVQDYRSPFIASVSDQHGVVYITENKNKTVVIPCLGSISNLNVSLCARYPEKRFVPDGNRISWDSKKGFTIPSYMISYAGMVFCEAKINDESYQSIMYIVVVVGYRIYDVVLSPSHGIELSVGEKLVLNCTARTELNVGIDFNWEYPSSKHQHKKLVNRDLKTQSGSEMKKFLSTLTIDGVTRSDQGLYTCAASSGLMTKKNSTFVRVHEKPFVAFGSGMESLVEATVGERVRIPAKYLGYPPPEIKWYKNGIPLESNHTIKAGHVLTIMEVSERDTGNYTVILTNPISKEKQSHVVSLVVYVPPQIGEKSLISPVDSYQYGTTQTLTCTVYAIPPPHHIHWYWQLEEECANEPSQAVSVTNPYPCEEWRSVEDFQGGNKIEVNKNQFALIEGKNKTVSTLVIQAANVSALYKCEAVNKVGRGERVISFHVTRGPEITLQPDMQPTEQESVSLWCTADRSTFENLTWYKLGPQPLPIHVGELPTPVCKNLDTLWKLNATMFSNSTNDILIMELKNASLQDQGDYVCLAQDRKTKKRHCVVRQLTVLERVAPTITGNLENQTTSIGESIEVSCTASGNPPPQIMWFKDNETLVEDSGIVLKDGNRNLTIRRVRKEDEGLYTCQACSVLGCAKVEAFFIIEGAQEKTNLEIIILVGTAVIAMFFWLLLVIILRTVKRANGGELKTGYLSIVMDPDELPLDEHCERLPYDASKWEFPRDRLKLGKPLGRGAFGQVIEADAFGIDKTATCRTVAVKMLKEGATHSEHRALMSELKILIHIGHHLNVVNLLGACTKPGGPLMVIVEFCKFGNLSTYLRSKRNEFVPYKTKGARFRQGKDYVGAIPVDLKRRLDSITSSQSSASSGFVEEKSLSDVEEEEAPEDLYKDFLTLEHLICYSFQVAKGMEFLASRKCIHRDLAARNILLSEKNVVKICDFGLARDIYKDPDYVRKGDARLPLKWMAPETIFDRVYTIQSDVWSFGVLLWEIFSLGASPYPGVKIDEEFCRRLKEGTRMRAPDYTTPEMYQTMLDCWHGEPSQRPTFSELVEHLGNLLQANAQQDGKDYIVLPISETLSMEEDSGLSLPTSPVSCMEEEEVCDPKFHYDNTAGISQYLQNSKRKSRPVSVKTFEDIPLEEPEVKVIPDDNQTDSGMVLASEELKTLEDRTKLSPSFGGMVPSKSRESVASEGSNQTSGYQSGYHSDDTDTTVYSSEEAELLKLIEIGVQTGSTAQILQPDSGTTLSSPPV

[8] = biological target: DYRK3 (human) (UniProt O43781)
[9] = system: SGK1 (human), O00141 [S422D]
Sequence of SGK1 (human), O00141 [S422D] (O00141 whole entry S422D, looked up): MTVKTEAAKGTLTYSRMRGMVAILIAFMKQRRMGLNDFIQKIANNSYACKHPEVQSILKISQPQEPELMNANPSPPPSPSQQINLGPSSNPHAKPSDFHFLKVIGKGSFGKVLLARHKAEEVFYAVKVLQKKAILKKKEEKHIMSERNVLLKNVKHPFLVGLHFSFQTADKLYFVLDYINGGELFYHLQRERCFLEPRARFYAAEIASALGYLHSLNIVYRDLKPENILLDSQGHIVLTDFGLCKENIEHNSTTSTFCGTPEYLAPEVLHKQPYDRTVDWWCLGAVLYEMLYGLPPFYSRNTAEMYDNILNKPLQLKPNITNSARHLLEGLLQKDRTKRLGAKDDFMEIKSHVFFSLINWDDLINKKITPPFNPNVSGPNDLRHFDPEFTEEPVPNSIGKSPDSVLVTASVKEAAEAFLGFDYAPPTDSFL

[10] = biological target: MKNK2 (human) (UniProt Q9HBH9)
[11] = biological target: LCK (human) (UniProt P06239)
[12] = biological target: EPHB2 (human) (UniProt P29323)
[13] = biological target: RPS6KB1 (human) (UniProt P23443)
[14] = biological target: CAMK2B (human) (UniProt Q13554)
[15] = biological target: RET (human) (UniProt P07949)
Sequence of RET (human) (P07949 whole entry, looked up): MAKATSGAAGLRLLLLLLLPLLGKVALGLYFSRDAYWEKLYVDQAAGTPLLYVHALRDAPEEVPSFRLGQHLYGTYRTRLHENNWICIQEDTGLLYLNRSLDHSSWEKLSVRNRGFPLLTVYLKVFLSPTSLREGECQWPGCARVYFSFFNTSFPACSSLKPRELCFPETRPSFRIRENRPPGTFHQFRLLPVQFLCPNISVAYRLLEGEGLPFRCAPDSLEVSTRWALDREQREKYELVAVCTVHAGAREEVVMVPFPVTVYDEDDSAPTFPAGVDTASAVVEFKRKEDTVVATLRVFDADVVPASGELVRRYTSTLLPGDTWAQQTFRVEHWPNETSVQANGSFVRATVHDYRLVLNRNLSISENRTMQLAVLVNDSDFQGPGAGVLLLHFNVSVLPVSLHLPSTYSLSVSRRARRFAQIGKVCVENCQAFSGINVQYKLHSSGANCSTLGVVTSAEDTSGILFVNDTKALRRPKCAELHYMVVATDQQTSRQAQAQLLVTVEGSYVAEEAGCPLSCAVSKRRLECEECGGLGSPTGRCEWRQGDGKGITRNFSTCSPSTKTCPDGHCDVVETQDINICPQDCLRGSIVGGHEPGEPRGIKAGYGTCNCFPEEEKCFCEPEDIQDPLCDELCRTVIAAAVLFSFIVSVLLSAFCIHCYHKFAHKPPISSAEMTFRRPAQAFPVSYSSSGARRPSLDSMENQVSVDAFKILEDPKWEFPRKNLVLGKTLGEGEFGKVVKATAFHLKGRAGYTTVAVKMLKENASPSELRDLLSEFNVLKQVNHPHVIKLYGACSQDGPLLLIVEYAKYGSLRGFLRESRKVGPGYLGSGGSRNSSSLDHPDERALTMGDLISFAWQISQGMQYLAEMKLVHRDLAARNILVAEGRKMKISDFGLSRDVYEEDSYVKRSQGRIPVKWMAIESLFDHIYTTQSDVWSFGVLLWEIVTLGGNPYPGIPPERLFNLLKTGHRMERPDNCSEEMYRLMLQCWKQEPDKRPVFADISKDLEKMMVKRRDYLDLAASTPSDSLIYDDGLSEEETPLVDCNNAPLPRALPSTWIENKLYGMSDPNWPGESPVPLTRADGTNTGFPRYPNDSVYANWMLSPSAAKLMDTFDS

[16] = biological target: PTK2 (human) (UniProt Q05397)
[17] = biological target: PHKG2 (human) (UniProt P15735)
[18] = biological target: CLK4 (human) (UniProt Q9HAZ1)
[19] = biological target: KIT (human) (UniProt P10721)
Sequence of KIT (human) (P10721 whole entry, looked up): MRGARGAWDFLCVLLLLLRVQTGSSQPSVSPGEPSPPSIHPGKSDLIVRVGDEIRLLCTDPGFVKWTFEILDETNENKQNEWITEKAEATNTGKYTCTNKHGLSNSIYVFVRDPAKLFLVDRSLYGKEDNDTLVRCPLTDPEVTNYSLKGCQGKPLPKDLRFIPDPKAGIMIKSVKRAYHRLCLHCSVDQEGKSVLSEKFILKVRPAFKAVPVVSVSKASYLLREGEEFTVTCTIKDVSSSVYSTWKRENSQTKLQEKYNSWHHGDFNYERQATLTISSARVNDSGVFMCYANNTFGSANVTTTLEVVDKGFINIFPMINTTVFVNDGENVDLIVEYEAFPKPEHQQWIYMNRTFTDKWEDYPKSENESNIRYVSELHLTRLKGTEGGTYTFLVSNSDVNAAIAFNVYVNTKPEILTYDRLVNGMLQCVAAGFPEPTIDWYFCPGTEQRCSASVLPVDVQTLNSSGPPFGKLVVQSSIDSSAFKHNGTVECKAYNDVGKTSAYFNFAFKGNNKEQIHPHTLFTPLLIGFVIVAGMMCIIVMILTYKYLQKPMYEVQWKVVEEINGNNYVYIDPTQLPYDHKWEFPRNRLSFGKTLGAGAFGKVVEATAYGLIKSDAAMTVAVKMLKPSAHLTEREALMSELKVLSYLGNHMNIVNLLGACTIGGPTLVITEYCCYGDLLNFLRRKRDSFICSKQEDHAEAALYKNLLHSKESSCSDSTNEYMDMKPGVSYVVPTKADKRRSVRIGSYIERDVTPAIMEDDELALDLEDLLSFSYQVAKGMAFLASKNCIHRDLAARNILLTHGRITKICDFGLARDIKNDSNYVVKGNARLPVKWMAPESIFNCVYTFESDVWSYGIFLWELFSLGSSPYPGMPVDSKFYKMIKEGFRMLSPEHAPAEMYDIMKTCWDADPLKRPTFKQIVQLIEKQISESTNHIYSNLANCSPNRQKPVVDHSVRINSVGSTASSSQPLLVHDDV

[20] = biological target: PRKCA (human) (UniProt P17252)
[21] = biological target: MAPKAPK5 (human) (UniProt Q8IW41)
[22] = biological target: PRKG1 (human) (UniProt Q13976)
[23] = biological target: RPS6KB2 (human) (UniProt Q9UBS0)
Sequence of RPS6KB2 (human) (Q9UBS0 whole entry, looked up): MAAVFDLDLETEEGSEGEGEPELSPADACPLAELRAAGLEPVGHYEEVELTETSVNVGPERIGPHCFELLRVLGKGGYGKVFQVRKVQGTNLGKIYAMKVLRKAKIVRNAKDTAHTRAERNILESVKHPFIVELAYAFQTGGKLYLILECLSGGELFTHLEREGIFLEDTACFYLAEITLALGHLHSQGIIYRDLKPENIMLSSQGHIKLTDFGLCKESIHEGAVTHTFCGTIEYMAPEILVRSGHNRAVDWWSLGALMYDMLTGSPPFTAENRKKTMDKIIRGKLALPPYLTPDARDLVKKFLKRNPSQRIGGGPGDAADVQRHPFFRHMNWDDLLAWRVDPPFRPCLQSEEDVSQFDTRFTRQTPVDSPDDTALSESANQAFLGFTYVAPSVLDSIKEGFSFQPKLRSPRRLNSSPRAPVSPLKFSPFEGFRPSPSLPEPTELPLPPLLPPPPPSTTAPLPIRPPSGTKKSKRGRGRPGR

[24] = biological target: STK16 (human) (UniProt O75716)
[25] = biological target: MARK1 (human) (UniProt Q9P0L2)
[26] = biological target: DYRK1A (human) (UniProt Q13627)
[27] = biological target: CSNK2A1 (human) (UniProt P68400)
[28] = biological target: TAOK2 (human) (UniProt Q9UL54)
[29] = biological target: MAPK14 (human) (UniProt Q16539)
Sequence of MAPK14 (human) (Q16539 whole entry, looked up): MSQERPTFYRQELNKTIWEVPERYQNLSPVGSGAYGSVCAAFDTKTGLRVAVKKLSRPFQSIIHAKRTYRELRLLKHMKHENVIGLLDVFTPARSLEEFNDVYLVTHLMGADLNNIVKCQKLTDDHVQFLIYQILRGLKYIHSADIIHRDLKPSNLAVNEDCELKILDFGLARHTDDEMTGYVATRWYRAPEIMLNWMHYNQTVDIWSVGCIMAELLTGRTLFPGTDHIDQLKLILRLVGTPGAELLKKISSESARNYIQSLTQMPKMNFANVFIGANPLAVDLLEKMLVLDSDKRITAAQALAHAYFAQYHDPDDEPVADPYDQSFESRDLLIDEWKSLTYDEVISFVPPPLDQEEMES

[30] = biological target: CSNK1A1 (human) (UniProt P48729)
Sequence of CSNK1A1 (human) (P48729 whole entry, looked up): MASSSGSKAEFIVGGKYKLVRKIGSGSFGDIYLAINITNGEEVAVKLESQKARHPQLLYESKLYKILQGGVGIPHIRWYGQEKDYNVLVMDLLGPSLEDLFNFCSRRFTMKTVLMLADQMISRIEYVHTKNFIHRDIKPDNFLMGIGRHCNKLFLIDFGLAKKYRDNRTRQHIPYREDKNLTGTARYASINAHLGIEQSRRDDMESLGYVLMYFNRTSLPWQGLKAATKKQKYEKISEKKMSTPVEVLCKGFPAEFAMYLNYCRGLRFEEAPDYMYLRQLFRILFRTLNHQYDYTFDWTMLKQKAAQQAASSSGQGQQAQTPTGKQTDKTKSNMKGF

[31] = biological target: CDK3 CCNE1 (human) (UniProt Q00526+P24864)
[32] = biological target: YES1 (human) (UniProt P07947)
[33] = biological target: TYK2 JH1 catalytic (human) (UniProt P29597)
[34] = biological target: JAK1 JH1 catalytic (human) (UniProt P23458)

Structure (SMILES) | residual activity [1] [%] | residual activity [2] [%] | residual activity [3] [%] | residual activity [4] [%] | residual activity [5] [%] | residual activity [6] [%] | residual activity [7] [%] | residual activity [8] [%] | residual activity [9] [%] | residual activity [10] [%] | residual activity [11] [%] | residual activity [12] [%] | residual activity [13] [%] | residual activity [14] [%] | residual activity [15] [%] | residual activity [16] [%] | residual activity [17] [%] | residual activity [18] [%] | residual activity [19] [%] | residual activity [20] [%] | further results
COc1cc2ncnc(Nc3ccc(O)c(Br)c3)c2cc1OC | 72.8 | 92.8 | 96.6 | 92.8 | 2.22 | 105 | 69.6 | 95.3 | 95.7 | 18 | 48.9 | 66.1 | 82.1 | 99.3 | 21.4 | 99.5 | 98 | 101 | 97.3 | 109 | residual activity [21]: 98.7%; residual activity [22]: 87.1% and 88.9%; residual activity [23]: 102%; residual activity [24]: 104%; residual activity [25]: 94.8%; residual activity [26]: 97.8%; residual activity [27]: 93.7%; residual activity [28]: 95.8%; residual activity [29]: 87.3%; residual activity [30]: 89.6%; residual activity [31]: 93.5%; residual activity [32]: 34.6%; residual activity [33]: 96.5%; residual activity [34]: 81.5%
O=C1NC(=O)c2c1c1c3ccccc3[nH]c1c1[nH]c3cc(Br)ccc3c21 | 49.5 | 79.7 | 66.1 | 97.7 | 100 | 61.8 | 67.9 | 94.5 | 47.6 | 44 | 88.9 | 99.5 | 45.2 | 80.3 | 80.1 | 91.8 | 94.8 | 49.5 | 128 | 72.5 | residual activity [21]: 86.2%; residual activity [22]: 76% and 90.7%; residual activity [23]: 83.9%; residual activity [24]: 87.2%; residual activity [25]: 42%; residual activity [26]: 84%; residual activity [27]: 93.1%; residual activity [28]: 94.1%; residual activity [29]: 90.6%; residual activity [30]: 95.4%; residual activity [31]: 88.1%; residual activity [32]: 88.4%; residual activity [33]: 81.1%; residual activity [34]: 110%
O=c1c2ccccc2[nH]c(=S)n1CCN1CCC(=C(c2ccc(F)cc2)c2ccc(F)cc2)CC1 | 101 | 108 | 99.2 | 98.4 | 101 | 119 | 93.1 | 101 | 96 | 89.5 | 99.5 | 92.1 | 97.9 | 102 | 106 | 105 | 100 | 103 | 103 | 73.1 | residual activity [21]: 101%; residual activity [22]: 102% and 95.7%; residual activity [23]: 102%; residual activity [24]: 104%; residual activity [25]: 99.7%; residual activity [26]: 99.9%; residual activity [27]: 97.9%; residual activity [28]: 109%; residual activity [29]: 99%; residual activity [30]: 106%; residual activity [31]: 100%; residual activity [32]: 99.2%; residual activity [33]: 107%; residual activity [34]: 105%
c1ccc(-c2cnc(Nc3ccc(OCCN4CCCC4)cc3)s2)cc1 | 74 | 86.6 | 84.9 | 101 | 98.3 | 129 | 76.1 | 106 | 83.6 | 18.6 | 48.6 | 75.6 | 92.3 | 84.2 | 84.2 | 98.3 | 97 | 97.9 | 20.3 | 106 | residual activity [21]: 83.4%; residual activity [22]: 96.7% and 100%; residual activity [23]: 92.7%; residual activity [24]: 92%; residual activity [25]: 90.1%; residual activity [26]: 94.2%; residual activity [27]: 90.7%; residual activity [28]: 70.7%; residual activity [29]: 103%; residual activity [30]: 86.7%; residual activity [31]: 97.6%; residual activity [32]: 42.1%; residual activity [33]: 106%; residual activity [34]: 101%
